Results: the supplement of paper PMC10627819

Assays:
Test in all cases: fitness (endpoint OD595 vs no drug) (fraction); higher = more growth
S. pneumoniae D39V = tested on: S. pneumoniae D39V
In short: (§1)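 Each well of a 384-well plate received 30 µl of culture at OD595 0.01, or 55 µl for S. pneumoniae. TSB, LB Lennox or CY served as media at 37 °C. OD595 was taken every 30 min for 14 h and corrected by subtracting the first reading. Fitness is the optical density at stationary-phase entry divided by the robust mean of no-drug controls, capped at 1.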

B. subtilis 168 = tested on: B. subtilis 168
In short: as §1

S. aureus Newman = tested on: S. aureus Newman
In short: as §1

S. aureus DSM 20231 = tested on: S. aureus DSM 20231
In short: as §1

O=C(O)[C@H]1/C(=C/CO)O[C@@H]2CC(=O)N21 [Clavulanic acid] + O=C(O[C@@H]1Cc2c(O)cc(O)cc2O[C@@H]1c1cc(O)c(O)c(O)c1)c1cc(O)c(O)c(O)c1 [EGCG]
fitness
Conditions | partner 6.25 µg/mL | partner 12.5 µg/mL | partner 25 µg/mL | partner 50 µg/mL
B. subtilis 168, first compound 1.5 µg/mL | 0.884 | – | – | –
B. subtilis 168, first compound 3 µg/mL | 0.835 | – | – | –
B. subtilis 168, first compound 6 µg/mL | 0.715 | – | 0.272 | –
S. pneumoniae D39V, first compound 0.5 µg/mL | – | 0.958 | 0.96 | 0.939
S. pneumoniae D39V, first compound 1 µg/mL | – | 0.889 | 0.931 | 0.93
S. pneumoniae D39V, first compound 2 µg/mL | – | 0.817 | 0.829 | 0.816

fitness, S. aureus Newman, one replicate
Conditions | first compound 0.03125 µg/mL | first compound 0.0625 µg/mL | first compound 0.125 µg/mL
partner 12.5 µg/mL | 0.846 | 0.892 | 0.824
partner 25 µg/mL | 0.821 | 0.874 | 0.812
partner 50 µg/mL | 0.75 | 0.733 | 0.73

CNC(C)C1CCC(N)C(OC2C(N)CC(N)C(OC3OCC(C)(O)C(NC)C3O)C2O)O1 (centres undefined) [Gentamicin] + CC1=C(C(=O)O)N2C(=O)[C@@H](NC(=O)[C@H](N)c3ccccc3)[C@H]2SC1 [Cephalexin]
fitness, one replicate, main component drawn
Conditions | partner 0.125 µg/mL | partner 0.25 µg/mL | partner 0.5 µg/mL | partner 1 µg/mL
B. subtilis 168, first compound 0.0625 µg/mL | – | – | – | 0.986
B. subtilis 168, first compound 0.125 µg/mL | – | – | – | 0.941
B. subtilis 168, first compound 0.25 µg/mL | – | – | – | 0.418
S. aureus Newman, first compound 0.375 µg/mL | – | ≥ 1 | ≥ 1 | ≥ 1
S. aureus Newman, first compound 0.75 µg/mL | – | ≥ 1 | ≥ 1 | ≥ 1
S. aureus Newman, first compound 1.5 µg/mL | – | 0.986 | 0.877 | 0.963
S. pneumoniae D39V, first compound 2 µg/mL | 0.962 | 0.96 | 0.947 | –
S. pneumoniae D39V, first compound 4 µg/mL | 0.993 | 0.955 | ≥ 1 | –
S. pneumoniae D39V, first compound 8 µg/mL | 0.93 | 0.965 | 0.956 | –

main component drawn
Conditions | fitness
B. subtilis 168, first compound 0.0625 µg/mL, partner 0.125 µg/mL | 0.852
B. subtilis 168, first compound 0.0625 µg/mL, partner 0.25 µg/mL | 0.938
B. subtilis 168, first compound 0.0625 µg/mL, partner 0.5 µg/mL | 0.882
B. subtilis 168, first compound 0.125 µg/mL, partner 0.125 µg/mL | 0.0869
B. subtilis 168, first compound 0.25 µg/mL, partner 0.125 µg/mL | 0.0552
B. subtilis 168, first compound 0.25 µg/mL, partner 0.25 µg/mL | 0.0555
B. subtilis 168, first compound 0.25 µg/mL, partner 0.5 µg/mL | 0.0535
S. aureus Newman, first compound 0.5 µg/mL, partner 0.25 µg/mL | 0.968
S. aureus Newman, first compound 0.5 µg/mL, partner 0.5 µg/mL | 0.964
S. aureus Newman, first compound 0.5 µg/mL, partner 1 µg/mL | 0.922
S. aureus Newman, first compound 1 µg/mL, partner 0.25 µg/mL | ≥ 1
S. aureus Newman, first compound 1 µg/mL, partner 0.5 µg/mL | 0.986
S. aureus Newman, first compound 1 µg/mL, partner 1 µg/mL | ≥ 1
S. aureus Newman, first compound 2 µg/mL, partner 0.25 µg/mL | 0.993
S. aureus Newman, first compound 2 µg/mL, partner 0.5 µg/mL | ≥ 1
S. aureus Newman, first compound 2 µg/mL, partner 1 µg/mL | ≥ 1
S. pneumoniae D39V, first compound 2 µg/mL, partner 2 µg/mL | 0.0158
S. pneumoniae D39V, first compound 2 µg/mL, partner 4 µg/mL | 0.0234
S. pneumoniae D39V, first compound 4 µg/mL, partner 1 µg/mL | 0.424
S. pneumoniae D39V, first compound 4 µg/mL, partner 2 µg/mL | 0.0331
S. pneumoniae D39V, first compound 4 µg/mL, partner 4 µg/mL | 0.026
S. pneumoniae D39V, first compound 8 µg/mL, partner 1 µg/mL | 0.401
S. pneumoniae D39V, first compound 8 µg/mL, partner 2 µg/mL | 0.0415
S. pneumoniae D39V, first compound 8 µg/mL, partner 4 µg/mL | 0.0404

Cc1cc(NS(=O)(=O)c2ccc(N)cc2)no1 [Sulfamethoxazol] + CN(N=O)C(=O)N[C@@H](C=O)[C@@H](O)[C@H](O)[C@H](O)CO [Streptozotocin]
fitness
Conditions | partner 0.15 µg/mL | partner 0.3 µg/mL | partner 0.6 µg/mL | partner 1.2 µg/mL | partner 2.4 µg/mL | partner 4.8 µg/mL
B. subtilis 168, first compound 1 µg/mL | 0.855 | 0.847 | 0.927 | – | – | –
B. subtilis 168, first compound 2 µg/mL | 0.85 | 0.889 | 0.889 | – | – | –
S. aureus DSM 20231, first compound 1 µg/mL | 0.794 | 0.727 | 0.632 | – | – | –
S. aureus DSM 20231, first compound 2 µg/mL | 0.861 | 0.735 | 0.689 | – | – | –
S. aureus DSM 20231, first compound 4 µg/mL | 0.857 | 0.815 | 0.689 | – | – | –
S. aureus Newman, first compound 1 µg/mL | 0.891 | 0.754 | 0.605 | – | – | –
S. aureus Newman, first compound 2 µg/mL | 0.868 | 0.789 | 0.587 | – | – | –
S. aureus Newman, first compound 4 µg/mL | 0.88 | 0.798 | 0.62 | – | – | –
S. pneumoniae D39V, first compound 1 µg/mL | – | – | – | 0.939 | 0.94 | 0.935
S. pneumoniae D39V, first compound 2 µg/mL | – | – | – | 0.944 | 0.942 | 0.953
S. pneumoniae D39V, first compound 4 µg/mL | – | – | – | 0.911 | 0.899 | 0.917

fitness, one replicate
Conditions | partner 0.15 µg/mL | partner 0.3 µg/mL | partner 0.6 µg/mL
B. subtilis 168, first compound 0.5 µg/mL | 0.931 | 0.904 | 0.943
B. subtilis 168, first compound 4 µg/mL | ≥ 1 | ≥ 1 | 0.956
S. aureus Newman, first compound 8 µg/mL | 0.854 | 0.804 | 0.751
